From ChEMBL document CHEMBL4411321, “Discovery of Potent, Selective, and Orally Bioavailable Estrogen-Related Receptor-γ Inverse Agonists To Restore the Sodium Iodide Symporter Function in Anaplastic Thyroid Cancer” (J Med Chem, 2019)
Active and inactive are the calls of the source. No cut-off for these calls is given here.

Columns and labels:
[1] = biological target: T1, CYP1A2 (Homo sapiens, UniProt P05177); assay: Inhibition of CYP1A2 in human liver microsomes assessed as reduction in phenacetin O-deethylase activity at 10 uM preincubated for 5 mins followed by NADPH addition and measured after 15 mins by LC-MS/MS analysis relative to control; format: ADME; details: probe phenacetin (O-deethylation)
T1 sequence (P05177 whole entry): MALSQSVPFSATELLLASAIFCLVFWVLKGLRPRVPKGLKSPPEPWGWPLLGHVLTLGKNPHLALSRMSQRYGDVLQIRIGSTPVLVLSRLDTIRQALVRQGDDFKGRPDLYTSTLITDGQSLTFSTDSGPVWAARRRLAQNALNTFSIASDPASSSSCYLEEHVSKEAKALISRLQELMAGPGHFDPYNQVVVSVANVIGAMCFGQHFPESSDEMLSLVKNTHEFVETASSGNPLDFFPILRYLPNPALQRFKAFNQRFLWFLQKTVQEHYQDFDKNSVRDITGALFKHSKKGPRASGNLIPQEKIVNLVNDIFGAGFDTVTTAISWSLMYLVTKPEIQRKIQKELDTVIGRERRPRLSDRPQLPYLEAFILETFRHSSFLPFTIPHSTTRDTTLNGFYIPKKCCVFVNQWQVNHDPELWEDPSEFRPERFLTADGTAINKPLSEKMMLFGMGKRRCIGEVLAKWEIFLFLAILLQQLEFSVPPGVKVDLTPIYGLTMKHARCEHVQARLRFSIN

[2] = biological target: CYP2C9 (Homo sapiens, UniProt P11712); assay: Inhibition of CYP2C9 in human liver microsomes assessed as reduction in tolbutamide 4-hydroxylase activity at 10 uM preincubated for 5 mins followed by NADPH addition and measured after 15 mins by LC-MS/MS analysis relative to control; format: ADME; details: probe tolbutamide (4-hydroxylation)
Sequence of CYP2C9 (P11712 whole entry): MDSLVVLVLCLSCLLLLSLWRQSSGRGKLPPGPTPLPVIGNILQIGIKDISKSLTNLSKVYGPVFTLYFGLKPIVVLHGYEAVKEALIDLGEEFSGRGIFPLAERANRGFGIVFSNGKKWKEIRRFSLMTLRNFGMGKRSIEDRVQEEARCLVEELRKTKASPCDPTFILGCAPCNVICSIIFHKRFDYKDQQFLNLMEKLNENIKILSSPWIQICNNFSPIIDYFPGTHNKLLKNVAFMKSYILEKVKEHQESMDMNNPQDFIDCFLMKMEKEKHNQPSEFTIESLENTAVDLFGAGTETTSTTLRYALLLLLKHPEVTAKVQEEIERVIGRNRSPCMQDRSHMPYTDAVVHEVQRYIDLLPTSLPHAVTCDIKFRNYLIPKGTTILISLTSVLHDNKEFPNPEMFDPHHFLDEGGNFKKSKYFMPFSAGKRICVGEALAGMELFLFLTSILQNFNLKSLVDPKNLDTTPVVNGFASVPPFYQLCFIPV

[3] = biological target: CYP2C19 (Homo sapiens, UniProt P33261); assay: Inhibition of CYP2C19 in human liver microsomes assessed as reduction in S-mephenytoin 4-hydroxylase activity at 10 uM preincubated for 5 mins followed by NADPH addition and measured after 15 mins by LC-MS/MS analysis relative to control; format: ADME; details: probe S-mephenytoin (4-hydroxylation)
Sequence of CYP2C19 (P33261 whole entry): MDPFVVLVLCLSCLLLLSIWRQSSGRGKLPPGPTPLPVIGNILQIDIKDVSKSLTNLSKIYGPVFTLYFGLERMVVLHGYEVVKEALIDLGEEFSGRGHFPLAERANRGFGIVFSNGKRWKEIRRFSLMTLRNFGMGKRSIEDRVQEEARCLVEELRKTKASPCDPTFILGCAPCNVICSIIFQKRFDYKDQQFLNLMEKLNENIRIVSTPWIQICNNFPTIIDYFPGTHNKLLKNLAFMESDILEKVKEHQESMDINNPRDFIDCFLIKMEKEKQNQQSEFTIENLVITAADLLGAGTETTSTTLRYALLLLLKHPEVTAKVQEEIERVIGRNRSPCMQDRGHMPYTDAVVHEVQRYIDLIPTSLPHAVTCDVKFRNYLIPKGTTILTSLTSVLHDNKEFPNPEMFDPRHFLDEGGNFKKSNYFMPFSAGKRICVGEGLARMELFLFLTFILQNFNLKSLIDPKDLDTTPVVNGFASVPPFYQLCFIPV

[4] = biological target: CYP2D6 (Homo sapiens, UniProt P10635); assay: Inhibition of CYP2D6 in human liver microsomes assessed as reduction in dextromethorphan O-demethylase activity at 10 uM preincubated for 5 mins followed by NADPH addition and measured after 15 mins by LC-MS/MS analysis relative to control; format: ADME; details: probe dextromethorphan (O-demethylation)
Sequence of CYP2D6 (P10635 whole entry): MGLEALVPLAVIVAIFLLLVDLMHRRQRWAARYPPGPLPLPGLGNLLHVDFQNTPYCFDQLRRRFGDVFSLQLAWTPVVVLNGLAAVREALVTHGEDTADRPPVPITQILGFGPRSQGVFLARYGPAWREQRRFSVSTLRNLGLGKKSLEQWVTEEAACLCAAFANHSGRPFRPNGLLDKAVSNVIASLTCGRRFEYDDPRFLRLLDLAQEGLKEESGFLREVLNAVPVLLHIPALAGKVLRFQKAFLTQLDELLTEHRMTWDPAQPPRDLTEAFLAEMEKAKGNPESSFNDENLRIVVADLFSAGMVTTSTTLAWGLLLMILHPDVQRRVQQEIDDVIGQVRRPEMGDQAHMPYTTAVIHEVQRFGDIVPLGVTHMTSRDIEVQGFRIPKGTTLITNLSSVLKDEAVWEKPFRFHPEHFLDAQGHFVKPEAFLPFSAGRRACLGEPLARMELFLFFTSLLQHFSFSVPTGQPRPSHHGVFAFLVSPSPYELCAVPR

[5] = biological target: CYP3A4 (Homo sapiens, UniProt P08684); assay: Inhibition of CYP3A4 in human liver microsomes assessed as reduction in midazolam 1-hydroxylase activity at 10 uM preincubated for 5 mins followed by NADPH addition and measured after 15 mins by LC-MS/MS analysis relative to control; format: ADME; details: probe midazolam (1-hydroxylation)
Sequence of CYP3A4 (P08684 whole entry): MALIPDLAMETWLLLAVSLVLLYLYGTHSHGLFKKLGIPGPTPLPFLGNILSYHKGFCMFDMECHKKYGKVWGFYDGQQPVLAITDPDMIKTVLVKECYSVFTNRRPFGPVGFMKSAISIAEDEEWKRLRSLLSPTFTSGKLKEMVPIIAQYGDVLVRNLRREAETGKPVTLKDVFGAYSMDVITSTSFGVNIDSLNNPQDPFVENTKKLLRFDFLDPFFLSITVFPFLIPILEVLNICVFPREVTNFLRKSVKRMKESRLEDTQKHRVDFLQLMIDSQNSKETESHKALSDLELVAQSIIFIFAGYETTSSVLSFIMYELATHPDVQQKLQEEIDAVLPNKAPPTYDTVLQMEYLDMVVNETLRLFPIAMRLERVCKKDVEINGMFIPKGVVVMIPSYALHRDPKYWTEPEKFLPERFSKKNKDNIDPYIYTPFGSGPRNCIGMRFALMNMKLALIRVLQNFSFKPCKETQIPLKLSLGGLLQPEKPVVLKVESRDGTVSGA

[6] = Metabolic stability in human liver microsomes assessed as compound remaining at 1 uM after 30 mins in presence of NADPH regeneration system by LC-MS/MS analysis; format: ADME, Microsome; details: read-out: Stability
[7] = Metabolic stability in dog liver microsomes assessed as compound remaining at 1 uM after 30 mins in presence of NADPH regeneration system by LC-MS/MS analysis; format: ADME, Canis lupus familiaris, Microsome; details: read-out: Stability
[8] = Metabolic stability in rat liver microsomes assessed as compound remaining at 1 uM after 30 mins in presence of NADPH regeneration system by LC-MS/MS analysis; format: ADME, Microsome; details: read-out: Stability
[9] = Metabolic stability in mouse liver microsomes assessed as compound remaining at 1 uM after 30 mins in presence of NADPH regeneration system by LC-MS/MS analysis; format: ADME, Microsome; details: read-out: Stability
[10] = Effective permeability of the compound at 10 uM after 5 hrs by PAMPA; format: ADME; details: read-out: Peff
[11] = AUC (0 to infinity) in Sprague-Dawley rat at 1 mg/kg, iv by LC-MS/MS analysis; format: ADME, organism-based; parameters: dose 1 mg/kg, time infinity, route intravenous; details: in vivo
[12] = AUC (0 to infinity) in Sprague-Dawley rat at 9 to 10 mg/kg, po via gavage by LC-MS/MS analysis; format: ADME, organism-based; details: in vivo
[13] = Tmax in Sprague-Dawley rat at 9 to 10 mg/kg, po via gavage by LC-MS/MS analysis; format: ADME, organism-based; details: in vivo
[14] = biological target: T2, Estrogen-related receptor gamma (Homo sapiens) (UniProt P62508); assay: Inverse agonist activity at ERRgamma in human BHT101 cells assessed as restoration of sodium iodide symporter function by measuring increase in radioiodide avidity at 6 to 12 uM after 24 hrs by gamma counting analysis based [125-I]-iodide uptake assay; format: cell-based
T2 sequence (whole entry): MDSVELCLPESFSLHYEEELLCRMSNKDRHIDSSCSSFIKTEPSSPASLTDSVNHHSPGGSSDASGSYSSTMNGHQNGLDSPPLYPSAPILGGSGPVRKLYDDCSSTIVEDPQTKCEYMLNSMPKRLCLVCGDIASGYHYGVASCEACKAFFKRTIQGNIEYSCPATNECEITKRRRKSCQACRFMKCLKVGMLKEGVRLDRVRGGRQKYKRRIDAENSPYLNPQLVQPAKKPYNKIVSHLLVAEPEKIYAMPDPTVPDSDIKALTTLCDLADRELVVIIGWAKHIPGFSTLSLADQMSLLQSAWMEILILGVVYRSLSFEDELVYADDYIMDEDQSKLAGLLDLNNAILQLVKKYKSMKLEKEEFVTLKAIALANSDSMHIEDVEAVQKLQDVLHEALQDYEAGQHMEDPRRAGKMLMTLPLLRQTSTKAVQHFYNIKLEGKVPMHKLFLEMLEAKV

[15] = biological target: T2, Estrogen-related receptor gamma (Homo sapiens); assay: Inverse agonist activity at ERRgamma in human CAL62 cells assessed as restoration of sodium iodide symporter function by measuring increase in radioiodide avidity at 6 to 12 uM after 24 hrs by gamma counting analysis based [125-I]-iodide uptake assay; format: cell-based
[16] = biological target: T2, Estrogen-related receptor gamma (Homo sapiens); assay: Inverse agonist activity at ERRgamma in human BHT101 cells assessed as restoration of sodium iodide symporter function by measuring increase in radioiodide avidity at 6 to 12 uM in presence of NIS inhibitor KClO4 after 24 hrs by gamma counting analysis based [125-I]-iodide uptake assay; format: cell-based
[17] = biological target: T2, Estrogen-related receptor gamma (Homo sapiens); assay: Inverse agonist activity at ERRgamma in human CAL62 cells assessed as restoration of sodium iodide symporter function by measuring increase in radioiodide avidity at 6 to 12 uM in presence of NIS inhibitor KClO4 after 24 hrs by gamma counting analysis based [125-I]-iodide uptake assay; format: cell-based
[18] = biological target: T2, Estrogen-related receptor gamma (Homo sapiens); assay: Inverse agonist activity at ERRgamma in human CAL62 cells assessed as increase in NIS mRNA expression at 6 to 12 uM by RT-PCR analysis; format: cell-based
[19] = biological target: T2, Estrogen-related receptor gamma (Homo sapiens); assay: Inverse agonist activity at ERRgamma in human CAL62 cells assessed as increase in TSHR mRNA expression at 6 to 12 uM by RT-PCR analysis; format: cell-based
[20] = biological target: T2, Estrogen-related receptor gamma (Homo sapiens); assay: Inverse agonist activity at ERRgamma in human CAL62 cells assessed as increase in TPO mRNA expression at 6 to 12 uM by RT-PCR analysis; format: cell-based
[21] = biological target: T2, Estrogen-related receptor gamma (Homo sapiens); assay: Inverse agonist activity at ERRgamma in human CAL62 cells assessed as increase in TG mRNA expression at 6 to 12 uM by RT-PCR analysis; format: cell-based
[22] = biological target: T2, Estrogen-related receptor gamma (Homo sapiens); assay: Inverse agonist activity at ERRgamma in human BHT101 cells assessed as increase in NIS mRNA expression at 6 to 12 uM by RT-PCR analysis; format: cell-based
[23] = biological target: T2, Estrogen-related receptor gamma (Homo sapiens); assay: Inverse agonist activity at ERRgamma in human BHT101 cells assessed as increase in TSHR mRNA expression at 6 to 12 uM by RT-PCR analysis; format: cell-based
[24] = biological target: T2, Estrogen-related receptor gamma (Homo sapiens); assay: Inverse agonist activity at ERRgamma in human BHT101 cells assessed as increase in TPO mRNA expression at 6 to 12 uM by RT-PCR analysis; format: cell-based
[25] = biological target: T2, Estrogen-related receptor gamma (Homo sapiens); assay: Inverse agonist activity at ERRgamma in human BHT101 cells assessed as increase in TG mRNA expression at 6 to 12 uM by RT-PCR analysis; format: cell-based
[26] = system: CAL-62; assay: Reduction in colony formation in human CAL62 cells at 6 uM after 24 hrs by crystal violet-based assay; format: ADME, cell-based; details: cal-62, 24 h
[27] = system: BHT-101; assay: Reduction in colony formation in human BHT101 cells at 6 uM after 24 hrs by crystal violet-based assay; format: ADME, cell-based; details: bht-101, 24 h
[28] = Potentiation of radio-iodine avidity in human CAL62 cells xenografted mouse assessed as increase in radio-iodine accumulation in tumor at 200 mg/kg, po dosed once daily for 6 days followed by 50 uCi 124-iodine dosing and measured after 2 hrs by PET/CT imaging analysis; format: ADME, organism-based, Neoplasm; details: in vivo
[29] = Genotoxicity in Salmonella typhimurium at 2 mM by mini Ames test; format: toxicity; details: salmonella enterica subsp. enterica serovar typhimurium, 2000 µM
[30] = in vivo; details: Sprague-Dawley, rat, iv, 1 mg/kg

In the case of CC(C)N1CCN(c2ccc(/C(=C(/CCCO)c3ccccc3)c3cccc(O)c3)cc2)CC1.Cl.Cl, the inhibition at 0.25 h, 10 µM [1] is reported as 0%, the inhibition at 0.25 h, 10 µM [2] is reported as 24.1% and the inhibition at 0.25 h, 10 µM [3] is reported as 0%. For the same molecule, the inhibition at 0.25 h, 10 µM [4] was 34%, the inhibition at 0.25 h, 10 µM [5] was 53.3% and the remaining at 0.5 h, 1 µM [6] was 65.4%. It also gave a remaining at 0.5 h, 1 µM [7] of 61.2%, a remaining at 0.5 h, 1 µM [8] of 54.9% and a remaining at 0.5 h, 1 µM [9] of 26.9%. For the same molecule, the Papp at 5 h, 10 µM [10] was 1.29 ×10⁻⁶ cm/s, the AUC(0-inf) [11] was 1 µM·h and the AUC(0-inf) [12] was 4.71 µM·h. The Tmax [13] was 1.7 h, the Activity [14] was “Active” and the Activity [15] was “Active”. For the same molecule, the Activity [16] was “inactive”, the Activity [17] was “inactive” and the Activity [18] was “Dose-dependent effect”. For the same molecule, the Activity [19] was “Dose-dependent effect”, the Activity [20] was “Dose-dependent effect” and the Activity [21] was “Dose-dependent effect”. The Activity [22] was “Active”, the Activity [23] was “Active” and the Activity [24] was “Active”. The Activity [25] was “Active”, the Activity [26] was “Non-Toxic” and the Activity [27] was “Non-Toxic”. The Activity [28] was “Active”, the Activity [29] was “Non-Toxic” and the AUC [30] was 0.99 µM·h.
